Assay results published in patent US9138408B2, “Use of taurine for treating alopecia” (L'OREAL, priority 2002, dated 2015).
“Also recorded” adds a separate entry of the source.

System: normal human dermal fibroblasts (NHDF pool PF2)
Assay: Incorporation of thymidine, proline and leucine in macromolecules neosynthesized by fibroblasts in culture
Assay type: cell-based
Details: for Leucine incorporation / Proline incorporation / Thymidine incorporation: NHDF in vitro culture
Experimental: A study was performed with the aim of evaluating, via a screening method, the effects of the compounds on the growth of fibroblasts and the synthesis of the major constituents of the extracellular matrix. The technique made it possible to study and evaluate the advantage of taurine on this cell metabolism (T. Shigematsu et al. Biochimica et Biophysica Acta 1200 (1994) 79-83).
A pool of normal human dermal fibroblasts (NHDF pool PF2, used at the eighth passage) was cultured under standard conditions in a medium: DMEM, 2 mM L-glutamine, 50 IU/ml/50 […] penicillin/streptomycin, 0.5% fetal calf serum.
Taurine was tested at concentrations of 10 mM and 1 mM in a sterile culture medium, against an untreated control blank.
The figures in bold are those for which there is a significant variation (stat. sign. meaning statistical significance: p<0.005). The results are expressed as a percentage of the control.

[1] = at the two concentrations (1 mM, 10 mM), fibroblasts

NCCS(=O)(=O)O [taurine, Taurine]
Leucine incorporation (1 mM taurine): 100 % control | Proline incorporation (1 mM taurine): 88 % control | Thymidine incorporation (1 mM taurine): 89 % control | Leucine incorporation (10 mM taurine): 105 % control | Proline incorporation (10 mM taurine): 87 % control | Thymidine incorporation (10 mM taurine): 90 % control | incorporation of leucine (representative of noncollagen protein synthesis), in words [1]: did not significantly modify; also recorded: without impairing that of leucine | incorporation of proline by the fibroblasts, in words [1]: did significantly inhibit; also recorded: reduces the incorporation of proline | incorporation of thymidine (representative of cell proliferation), in words [1]: did not significantly modify
